Data from patent publication US12479825B2, “Melanocortin subtype-2 receptor (MC2R) antagonists and uses thereof” (Crinetics Pharmaceuticals, Inc., priority 2019, dated 2025).

The compounds below were run against T1, hMC2 receptor (Homo sapiens, UniProt Q01718) (assay: hMC2 membrane binding assay ([125I]ACTH (1-39) Tyr23, SPA)). Conditions: crude hMC2R membranes from CRE-bla-CHO-K1 cells expressing hMC2 receptor and hMRAP; 0.2 nM [125I]ACTH (1-39) Tyr23; 1.5 hours at room temperature; read-out: MC2R binding potency.
T1 construct: host or cells: CRE-bla-CHO-K1 cells, crude membrane fraction
Protocol: Crude membrane fractions are prepared from CRE-bla-CHO-K1 cells stably expressing hMC2 receptor and hMRAP accessory protein (Thermo Fisher). The cells are grown to 85-100% confluence on standard tissue culture dishes in GlutaMax DMEM growth media (Gibco) with following additives: 10% dialyzed FBS (Gemini), 0.1 mM NEAA (Gibco), 25 mM HEPES (Gibco), 5 μg/mL blasticidin (Goldbio), 100 μg/mL zeocin (Invitrogen), 600 μg/mL hygromycin (Goldbio). To prepare membranes, cells are scraped and collected in 1× Dulbecco's phosphate buffered saline (Corning) and then pelleted at 1000 RPM's. The cell pellet is reconstituted in membrane preparation buffer (20 mM HEPES, 6 mM MgCl2 and 1 mM EGTA, protease inhibitor tablets (Pierce) adjusted to pH 7.4), homogenized using a dounce homogenizer, and the resulting membrane fraction is pelleted by centrifugation at 12,000 RPM's. The membrane pellet is resuspended in membrane preparation buffer, snap freezed and stored at −80° C. for later use.
The hMC2 membrane binding assay utilizes the following components: radiolabel [^125I]ACTH (1-39) Tyr23 (PerkinElmer), wheat germ agglutinin coated PVT SPA beads (PerkinElmer), crude hMC2R membranes, and compounds. Briefly hMC2R membranes are incubated with SPA beads in binding assay buffer (50 mM HEPES, 5 mM MgCl2, 1 mM CaCl2, 0.2% BSA, protease inhibitor tablets (Pierce) adjusted to pH7.4) prior to assay initiation. A dose response of compound (the final concentration of compound is typically 0-10,000 nM), SPA membranes, and [^125I]ACTH (1-39) Tyr23 at a final concentration of 0.2 nM is plated in a 96-well assay plate and allowed to incubate 1.5 hours at room temperature. Assay plates are read using a Top Count NXT and Ki values for compounds are determined using a GraphPad Prism 6 non-linear regression analysis.

T1 sequence (Q01718 whole entry): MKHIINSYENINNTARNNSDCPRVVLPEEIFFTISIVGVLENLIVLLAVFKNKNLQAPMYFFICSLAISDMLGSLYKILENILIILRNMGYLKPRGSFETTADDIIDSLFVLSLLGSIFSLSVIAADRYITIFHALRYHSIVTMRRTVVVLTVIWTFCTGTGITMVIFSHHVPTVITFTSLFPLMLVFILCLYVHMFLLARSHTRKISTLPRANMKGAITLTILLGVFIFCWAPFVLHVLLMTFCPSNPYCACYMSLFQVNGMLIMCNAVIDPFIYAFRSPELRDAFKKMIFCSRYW
T1 sequence (Q8TCY5 whole entry partner): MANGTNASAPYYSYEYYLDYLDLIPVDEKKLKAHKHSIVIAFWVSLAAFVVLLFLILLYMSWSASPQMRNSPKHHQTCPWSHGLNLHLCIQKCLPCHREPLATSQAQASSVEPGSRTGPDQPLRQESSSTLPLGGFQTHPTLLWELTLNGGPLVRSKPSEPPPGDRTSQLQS

**Q.** How did the Ki turn out when `CCOc1ccc(C(=O)N2CCN(c3ccc(-c4cccnc4OCC)nc3OCCN(C)C)[C@H](CC)C2)c(C(F)(F)F)n1` [1-17, [2-({2′-ethoxy-5-[(2R)-4-[6-ethoxy-2-(trifluoromethyl)pyridine-3-carbonyl]-2-ethylpiperazin-1-yl]-[2,3′-bipyridin]-6-yl}oxy)ethyl]dimethylamine] was run?
**A.** < 10 nM

**Q.** `CCOc1ncccc1-c1ccc(N2CCN(C(=O)N3CCc4cccc(C#N)c43)C[C@H]2CC)c(OCCNC)n1` [1-23, 1-[(3R)-4-{2′-ethoxy-6-[2-(methylamino)ethoxy]-[2,3′-bipyridin]-5-yl}-3-ethylpiperazine-1-carbonyl]-2,3-dihydro-1H-indole-7-carbonitrile] was tested. Which Ki did it give?
**A.** < 10 nM

**Q.** `CCOc1ncccc1-c1ccc(N2CC[C@H](S(=O)(=O)c3ccccc3C(F)(F)F)C[C@H]2CC)c(C(=O)N[C@@H]2CCN(C)C2)n1` (racemic) [5-2, rac-2′-ethoxy-5-[(2R,4S)-2-ethyl-4-[2-(trifluoromethyl)benzenesulfonyl]piperidin-1-yl]-N-[(3R)-1-methylpyrrolidin-3-yl]-[2,3′-bipyridine]-6-carboxamide] was tested. Which Ki did it give?
**A.** 100 to 1000 nM

**Q.** With `CCOc1ncccc1-c1ccc(N2CC[C@H](Oc3ccc(F)cc3C#N)C[C@@H]2C2CC2)c(C(=O)N[C@@H]2CCN(C)C2)n1` (mixture of isomers) [2-25, 5-[cis-4-(2-cyano-4-fluorophenoxy)-2-cyclopropylpiperidin-1-yl]-2′-ethoxy-N-[(3R)-1-methylpyrrolidin-3-yl]-[2,3′-bipyridine]-6-carboxamide] as the compound, how does the Ki read?
**A.** < 10 nM

**Q.** With `CCOc1ncccc1-c1ccc(N2CCN(C(=O)N3CCc4cc(Cl)cc(C#N)c43)C[C@H]2CC)c(OCCN)n1` [1-25, 1-[(3R)-4-[6-(2-aminoethoxy)-2′-ethoxy-[2,3′-bipyridin]-5-yl]-3-ethylpiperazine-1-carbonyl]-5-chloro-2,3-dihydro-1H-indole-7-carbonitrile] as the compound, how does the Ki read?
**A.** < 10 nM

**Q.** `CCOc1ncccc1-c1ccc(N2CC[C@H](Oc3ccc(C(F)(F)F)cc3C#N)C[C@@H]2C2CC2)c(C(=O)N[C@@H]2CCN(C)C2)n1` (mixture of isomers) [2-6, 5-{cis-4-[2-cyano-4-(trifluoromethyl)phenoxy]-2-cyclopropylpiperidin-1-yl}-2′-ethoxy-N-[(3R)-1-methylpyrrolidin-3-yl]-[2,3′-bipyridine]-6-carboxamide] was tested. Which Ki did it give?
**A.** < 10 nM

**Q.** Which Ki does the source give for `CCOc1ncccc1-c1ccc(N2CC[C@H](Sc3ccccc3C(F)(F)F)C[C@H]2CC)c(C(=O)N[C@@H]2CCN(C)C2)n1` (racemic) [5-1, rac-2′-ethoxy-5-[(2R,4S)-2-ethyl-4-{[2-(trifluoromethyl)phenyl]sulfanyl}piperidin-1-yl]-N-[(3R)-1-methylpyrrolidin-3-yl]-[2,3′-bipyridine]-6-carboxamide] here?
**A.** < 10 nM

**Q.** How did the Ki turn out when `CCOc1ccc(C(=O)N2CCN(c3ccc(-c4cccnc4OCC)nc3OC[C@H](C)N)[C@H](CC)C2)c(C(F)(F)F)n1` [1-20, (2S)-1-({2′-ethoxy-5-[(2R)-4-[6-ethoxy-2-(trifluoromethyl)pyridine-3-carbonyl]-2-ethylpiperazin-1-yl]-[2,3′-bipyridin]-6-yl}oxy)propan-2-amine] was run?
**A.** < 10 nM

**Q.** For `CCOc1ncccc1-c1ccc(N2CC[C@@H](Oc3ccc(Cl)nc3C(F)(F)F)C[C@H]2C2CC2)c(C(=O)N[C@@H]2CCN(C)C2)n1` (racemic) [2-8, 5-[cis*-4-{[6-chloro-2-(trifluoromethyl)pyridin-3-yl]oxy}-2-cyclopropylpiperidin-1-yl]-2′-ethoxy-N-[(3R)-1-methylpyrrolidin-3-yl]-[2,3′-bipyridine]-6-carboxamide], which Ki is on record?
**A.** < 10 nM

**Q.** For `CCOc1ncccc1-c1ccc(C2CCN(c3ccc(C(F)(F)F)cc3C#N)CC2)c(OCCNC)n1` [3-1, 2-(4-(2′-ethoxy-6-(2-(methylamino)ethoxy)-[2,3′-bipyridin]-5-yl)piperidin-1-yl)-5-(trifluoromethyl)benzonitrile], which Ki is on record?
**A.** < 10 nM

**Q.** How did the Ki turn out when `CCOc1ccc(C(=O)N2CCN(c3ccc(-c4cccnc4OCC)nc3O[C@@H]3CCNC3)[C@H](CC)C2)c(C(F)(F)F)n1` [1-5, 2′-ethoxy-5-[(2R)-4-[6-ethoxy-2-(trifluoromethyl)pyridine-3-carbonyl]-2-ethylpiperazin-1-yl]-6-[(3R)-pyrrolidin-3-yloxy]-2,3′-bipyridine] was run?
**A.** < 10 nM

**Q.** How did the Ki turn out when “5-{cis-4-[4-chloro-2-(difluoromethyl)phenoxy]-2-cyclopropylpiperidin-1-yl}-2′-ethoxy-N-[(3R)-1-methylpyrrolidin-3-yl]-[2,3′-bipyridine]-6-carboxamide [2-7]” was run?
**A.** < 10 nM

**Q.** How did the Ki turn out when `CCOc1ncccc1-c1ccc(N2CC[C@H](Oc3ccc(C(F)(F)F)cc3C#N)C[C@H]2C2CC2)c(C(=O)N[C@@H]2CCNC2)n1` (racemic) [2-3, 5-[trans*4-[2-cyano-4-(trifluoromethyl)phenoxy]-2-cyclopropylpiperidin-1-yl]-2′-ethoxy-N-[(3R)-pyrrolidin-3-yl]-[2,3′-bipyridine]-6-carboxamide] was run?
**A.** 10 to 100 nM

**Q.** Which Ki does the source give for `CCOc1ncccc1-c1ccc(N2CC[C@@H](Oc3ccc(Cl)cc3C(F)(F)F)C[C@H]2CC)c(C(=O)N[C@@H]2CCN(C)C2)n1` (single isomer, unassigned) [2-9, 5-[(2R,4R)*-4-[4-chloro-2-(trifluoromethyl)phenoxy]-2-ethylpiperidin-1-yl]-2′-ethoxy-N-[(3R)-1-methylpyrrolidin-3-yl]-[2,3′-bipyridine]-6-carboxamide] here?
**A.** < 10 nM

**Q.** How did the Ki turn out when `CCOc1ncccc1-c1ccc(N2CC[C@@H](Oc3ccc(Cl)cc3C#N)C[C@H]2CC)c(C(=O)N[C@@H]2CCN(C)C2)n1` (single isomer, unassigned) [2-21] was run?
**A.** < 10 nM
